Data taken from patent US20230278972A1, “SUBSTITUTED HALOALKYL SULFONANILIDE HERBICIDES” (FMC Corporation, priority 2020, published 2023).

What was measured:
Format in all cases: in vivo
[1] = test system: ragweed (common ragweed, Ambrosia artemisiifolia); experiment: Test A preemergence, ragweed; settings: Preemergence; for Ragweed plant response rating: 125 g ai/ha, visual injury on 0 to 100 scale (0 no effect, 100 complete control), approximately 10 days; for Plant response rating, Ragweed: 500 g ai/ha, 0 to 100 scale (0 no effect, 100 complete control)
Summary of the method: (§1)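 After sowing into a sand-amended loam, pots for the preemergence test were treated by spraying directly onto soil. In parallel, seedlings at the one- to two-leaf stage and 2 to 10 cm tall were treated postemergence with the identical surfactant-containing formulation.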

[2] = test system: pigweed (Amaranthus retroflexus); experiment: Test A preemergence, pigweed; settings: for Pigweed plant response rating: 125 g ai/ha, visual injury on 0 to 100 scale (0 no effect, 100 complete control), approximately 10 days; for Plant response rating, Pigweed: 500 g ai/ha, 0 to 100 scale (0 no effect, 100 complete control)
Summary of the method: (§2)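 Compounds in non-phytotoxic solvent with surfactant. Soil: loam/sand. Preemergence via directed soil spray after seeding; postemergence on seedlings 2–10 cm, one- to two-leaf.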

[3] = test system: Ryegrass, Italian (Italian ryegrass, Lolium multiflorum); experiment: Test A postemergence, Ryegrass, Italian; settings: Postemergence, 0 to 100 scale (0 no effect, 100 complete control); for Plant response rating, Ryegrass, Italian: 125 g ai/ha, visual injury approx. 10 days; for Ryegrass, Italian plant response rating: 500 g ai/ha, visual injury vs untreated controls after approx. 10 days
Summary of the method: as §1

[4] = test system: galium (catchweed bedstraw, Galium aparine); experiment: Test A postemergence, galium; settings: Postemergence, 0 to 100 scale (0 no effect, 100 complete control); for Plant response rating, Galium: 125 g ai/ha, visual injury approx. 10 days; for Galium plant response rating: 500 g ai/ha, visual injury vs untreated controls after approx. 10 days
Summary of the method: as §2

[5] = test system: Ryegrass, Italian (Italian ryegrass, Lolium multiflorum); experiment: Test A preemergence, Ryegrass, Italian; settings: Preemergence; for Ryegrass, Italian plant response rating: 125 g ai/ha, visual injury on 0 to 100 scale (0 no effect, 100 complete control), approximately 10 days; for Plant response rating, Ryegrass, Italian: 500 g ai/ha, 0 to 100 scale (0 no effect, 100 complete control)
Summary of the method: as §1

[6] = test system: pigweed (Amaranthus retroflexus); experiment: Test A postemergence, pigweed; settings: Postemergence, 0 to 100 scale (0 no effect, 100 complete control); for Plant response rating, Pigweed: 125 g ai/ha, visual injury approx. 10 days; for Pigweed plant response rating: 500 g ai/ha, visual injury vs untreated controls after approx. 10 days
Summary of the method: as §1

kochia (Bassia scoparia) [7] = experiment: Test A postemergence, kochia; settings: Postemergence, 0 to 100 scale (0 no effect, 100 complete control); for Plant response rating, Kochia: 125 g ai/ha, visual injury approx. 10 days; for Kochia plant response rating: 500 g ai/ha, visual injury vs untreated controls after approx. 10 days
Summary of the method: as §1

corn (Zea mays) = experiment: Test A postemergence, corn; settings: Postemergence, 0 to 100 scale (0 no effect, 100 complete control); for Plant response rating, Corn: 125 g ai/ha, visual injury approx. 10 days; for Corn plant response rating: 500 g ai/ha, visual injury vs untreated controls after approx. 10 days
Summary of the method: as §1

[8] = test system: wheat (Triticum aestivum); experiment: Test A postemergence, wheat; settings: Postemergence, 0 to 100 scale (0 no effect, 100 complete control); for Plant response rating, Wheat: 125 g ai/ha, visual injury approx. 10 days; for Wheat plant response rating: 500 g ai/ha, visual injury vs untreated controls after approx. 10 days
Summary of the method: as §2

[9] = test system: ragweed (common ragweed, Ambrosia artemisiifolia); experiment: Test A postemergence, ragweed; settings: Postemergence, 0 to 100 scale (0 no effect, 100 complete control); for Plant response rating, Ragweed: 125 g ai/ha, visual injury approx. 10 days; for Ragweed plant response rating: 500 g ai/ha, visual injury vs untreated controls after approx. 10 days
Summary of the method: as §1

[10] = test system: blackgrass (Alopecurus myosuroides); experiment: Test A postemergence, blackgrass; settings: Postemergence, 0 to 100 scale (0 no effect, 100 complete control); for Plant response rating, Blackgrass: 125 g ai/ha, visual injury approx. 10 days; for Blackgrass plant response rating: 500 g ai/ha, visual injury vs untreated controls after approx. 10 days
Summary of the method: as §1

[11] = test system: barnyardgrass (Echinochloa crus-galli); experiment: Test A preemergence, barnyardgrass; settings: Preemergence; for Barnyardgrass plant response rating: 125 g ai/ha, visual injury on 0 to 100 scale (0 no effect, 100 complete control), approximately 10 days; for Plant response rating, Barnyardgrass: 500 g ai/ha, 0 to 100 scale (0 no effect, 100 complete control)
Summary of the method: as §1

[12] = test system: barnyardgrass (Echinochloa crus-galli); experiment: Test A postemergence, barnyardgrass; settings: Postemergence, 0 to 100 scale (0 no effect, 100 complete control); for Plant response rating, Barnyardgrass: 125 g ai/ha, visual injury approx. 10 days; for Barnyardgrass plant response rating: 500 g ai/ha, visual injury vs untreated controls after approx. 10 days
Summary of the method: as §2

[13] = test system: Foxtail, Giant (giant foxtail, Setaria faberi); experiment: Test A postemergence, Foxtail, Giant; settings: Postemergence, 0 to 100 scale (0 no effect, 100 complete control); for Plant response rating, Foxtail, Giant: 125 g ai/ha, visual injury approx. 10 days; for Foxtail, Giant plant response rating: 500 g ai/ha, visual injury vs untreated controls after approx. 10 days
Summary of the method: as §1

[14] = test system: Foxtail, Giant (giant foxtail, Setaria faberi); experiment: Test A preemergence, Foxtail, Giant; settings: Preemergence; for Foxtail, Giant plant response rating: 125 g ai/ha, visual injury on 0 to 100 scale (0 no effect, 100 complete control), approximately 10 days; for Plant response rating, Foxtail, Giant: 500 g ai/ha, 0 to 100 scale (0 no effect, 100 complete control)
Summary of the method: as §1

kochia (Bassia scoparia) [15] = experiment: Test A preemergence, kochia; settings: Preemergence; for Kochia plant response rating: 125 g ai/ha, visual injury on 0 to 100 scale (0 no effect, 100 complete control), approximately 10 days; for Plant response rating, Kochia: 500 g ai/ha, 0 to 100 scale (0 no effect, 100 complete control)
Summary of the method: as §1

Row | Structure (SMILES) | Ragweed plant response rating [1] | Plant response rating, Ragweed [1] | Pigweed plant response rating [2] | Plant response rating, Pigweed [2] | Plant response rating, Ryegrass, Italian [3] | Ryegrass, Italian plant response rating [3] | Plant response rating, Galium [4] | Galium plant response rating [4] | Ryegrass, Italian plant response rating [5] | Plant response rating, Ryegrass, Italian [5] | Plant response rating, Pigweed [6] | Pigweed plant response rating [6] | Plant response rating, Kochia (kochia (Bassia scoparia) [7]) | Kochia plant response rating (kochia (Bassia scoparia) [7]) | Plant response rating, Corn (corn (Zea mays)) | Corn plant response rating (corn (Zea mays)) | Plant response rating, Wheat [8] | Wheat plant response rating [8] | Plant response rating, Ragweed [9] | Ragweed plant response rating [9] | other results
1 | Cc1cc(F)c(-c2ccnn(C)c2=O)cc1NS(=O)(=O)C(F)(F)F [Compound 63] | 30 | 80 | 70 | 90 | 30 | 70 | 90 | 90 | 90 | 100 | 30 | 80 | 70 | 90 | 0 | 50 | 0 | 80 | 10 | 60 | Plant response rating, Blackgrass [10]: 0; Blackgrass plant response rating [10]: 40; Barnyardgrass plant response rating [11]: 70; Plant response rating, Barnyardgrass [11]: 90; Plant response rating, Barnyardgrass [12]: 10; Barnyardgrass plant response rating [12]: 90; Plant response rating, Foxtail, Giant [13]: 70; Foxtail, Giant plant response rating [13]: 90; Foxtail, Giant plant response rating [14]: 90; Plant response rating, Foxtail, Giant [14]: 100; Kochia plant response rating (kochia (Bassia scoparia) [15]): 40; Plant response rating, Kochia (kochia (Bassia scoparia) [15]): 90
2 | COc1c(Cl)nn(C)c(=O)c1-c1cc(NS(=O)(=O)C(F)(F)F)c(C)cc1C [Compound 64] | 0 | 40 | 40 | 50 | 40 | 80 | 0 | 30 | 70 | 100 | 20 | 30 | 20 | 60 | 0 | 0 | 40 | 60 | 0 | 0 | Plant response rating, Blackgrass [10]: 0; Blackgrass plant response rating [10]: 30; Barnyardgrass plant response rating [11]: 50; Plant response rating, Barnyardgrass [11]: 90; Plant response rating, Barnyardgrass [12]: 20; Barnyardgrass plant response rating [12]: 20; Plant response rating, Foxtail, Giant [13]: 0; Foxtail, Giant plant response rating [13]: 60; Foxtail, Giant plant response rating [14]: 90; Plant response rating, Foxtail, Giant [14]: 90; Kochia plant response rating (kochia (Bassia scoparia) [15]): 40; Plant response rating, Kochia (kochia (Bassia scoparia) [15]): 90
3 | COc1cnn(C)c(=O)c1-c1cc(NS(=O)(=O)C(F)(F)F)c(C)cc1C [Compound 65] | 0 | 0 | 0 | 30 | 0 | 0 | 0 | 30 | 30 | 60 | 0 | 0 | 0 | 0 | 0 | 0 | 0 | 50 | 0 | 0 | Plant response rating, Blackgrass [10]: 0; Blackgrass plant response rating [10]: 0; Barnyardgrass plant response rating [11]: 0; Plant response rating, Barnyardgrass [11]: 90; Plant response rating, Barnyardgrass [12]: 0; Barnyardgrass plant response rating [12]: 70; Plant response rating, Foxtail, Giant [13]: 0; Foxtail, Giant plant response rating [13]: 40; Foxtail, Giant plant response rating [14]: 80; Plant response rating, Foxtail, Giant [14]: 100; Kochia plant response rating (kochia (Bassia scoparia) [15]): 0; Plant response rating, Kochia (kochia (Bassia scoparia) [15]): 60
4 | Cc1ccc(-c2ccnn(C)c2=O)cc1N(S(=O)(=O)C(F)(F)F)S(=O)(=O)C(F)(F)F [Compound 66] | 0 | 10 | 0 | 30 | 0 | 0 | 50 | 70 | 0 | 0 | 0 | 50 | 0 | 10 | 0 | 10 | 0 | 40 | 0 | 0 | Plant response rating, Blackgrass [10]: 0; Blackgrass plant response rating [10]: 0; Barnyardgrass plant response rating [11]: 0; Plant response rating, Barnyardgrass [11]: 90; Plant response rating, Barnyardgrass [12]: 0; Barnyardgrass plant response rating [12]: 30; Plant response rating, Foxtail, Giant [13]: 0; Foxtail, Giant plant response rating [13]: 30; Foxtail, Giant plant response rating [14]: 0; Plant response rating, Foxtail, Giant [14]: 60; Kochia plant response rating (kochia (Bassia scoparia) [15]): 0; Plant response rating, Kochia (kochia (Bassia scoparia) [15]): 40
5 | Cc1cc(C)c(N(S(=O)(=O)C(F)(F)F)S(=O)(=O)C(F)(F)F)cc1-c1cc(Br)nn(C)c1=O [Compound 67] | 0 | 60 | 50 | 80 | 0 | 60 | 50 | 60 | 80 | 90 | 30 | 80 | 10 | 40 | 0 | 0 | 30 | 60 | 0 | 10 | Plant response rating, Blackgrass [10]: 0; Blackgrass plant response rating [10]: 60; Barnyardgrass plant response rating [11]: 70; Plant response rating, Barnyardgrass [11]: 100; Plant response rating, Barnyardgrass [12]: 0; Barnyardgrass plant response rating [12]: 40; Plant response rating, Foxtail, Giant [13]: 10; Foxtail, Giant plant response rating [13]: 70; Foxtail, Giant plant response rating [14]: 90; Plant response rating, Foxtail, Giant [14]: 100; Kochia plant response rating (kochia (Bassia scoparia) [15]): 0; Plant response rating, Kochia (kochia (Bassia scoparia) [15]): 70
